In PubChem BioAssay AID1963839 (Molecular Pharmacology Branch, DTP, NCI, 2024):
Values joined by “and” are separate entries in the source; they are usually repeats but may differ in a detail not shown here. Equal entries are not always repeated.

Tested on: 817829-284-R-J1-PDC complex spheroid viability
Assay: Anticancer human tumor 817829-284-R-J1-PDC patient-derived colon adenocarcinoma cell line growth inhibition [POLQ]
Conditions: for viability, T/C: stronger effect = lower value
Procedure: Multicellular complex tumor spheroid response to Polymerase (POL) inhibitors (novobiocin, ART-558, RP6685) in combination with a variety of drugs and investigational agents in selected tumor cell lines
The POL inhibitors (novobiocin, ART-558, and RP6685) were evaluated both individually and in combination with standard of care and investigational anticancer small molecules within a complex spheroid model of solid tumors. . Complex spheroids include a stromal component modeled by human endothelial cells (HUVEC) and fibroblasts modeled by human mesenchymal stem cells (MSCs). The concentration ranges selected for each drug and investigational agent were based upon clinically achievable concentrations if the clinical Cmax of the agent was known.
Compounds. The drugs and investigational agents: novobiocin (NSC847541), ART-558 (NSC835418), RP-6685 (NSC848927), peposertib (NSC802822), ceralasertib (NSC780249), elimusertib (NSC800525), camonsertib (NSC841442), AZD-1390 (NSC803789), olaparib (NSC753686), talazoparib (NSC767125), rucaparib (NSC756644), sotorasib (NSC818433), MRTX-1133 (NSC836407), SN-38 (NSC673596), topotecan (NSC609699), epotoside (NSC141540), doxorubicin (NSC123127), gemcitabine (NSC613327), 5-fluorouracil (NSC19893), paclitaxel (NSC125973), vemurafenib (NSC761431), MSA-2 (NSC828583), SN-011 (NSC837082), adavosertib (NSC754352), prexasertib (NSC758257), carboplatin (NSC241240) and oxaliplatin (NSC266046), were obtained from the National Cancer Institute (NCI) Developmental Therapeutics Program Chemical Repository (21). The FDA-approved anticancer drug set is available from the Developmental Therapeutics Program at https://dtp.cancer.gov/organization/dscb/obtaining/. […] The stock solutions were prepared in dimethyl sulfoxide (DMSO, Sigma-Aldrich, St. Louis, MO, cat. D2650), except for the platinum compounds which were prepared in saline (Quality Biological, Gaithersburg, MD, cat. 114-055-101), at 800-fold the tested concentration and stored at -70 degrees C prior to their use. All drugs and investigational agents were tested over a range starting from a high concentration at or near the clinical Cmax and decreasing in half-log increments. If the clinical Cmax for an agent had not been determined, the highest concentration tested was 10 microM, except for SN-38, which was tested at a high concentration of 1 microM.
Cell Culture. All cells were maintained in an incubator at 37 degrees C and 5% CO2 with 95% humidity. The PDC lines were cultured according to standard operating procedures established by the NCI PDMR (https://pdmr.cancer.gov). Table 3 of the manuscript, lists the cell lines along with the number of the three cell types plated to form the mct-spheroids and media for tumor cell growth. After thawing, all PDC lines, except 997537-175-T-J1-PDC and 415267-285-R-J2-PDC, were cultured in Matrigel-coated flasks prepared with a working solution of 1X Ham's F-12 nutrient mix, without supplementation (Thermo Fisher Scientific, cat. 11765054), 100 U/mL penicillin-streptomycin (Thermo Fisher Scientific, cat. 15140122), and 2.5% Matrigel (Corning Inc., Corning, NY, cat. 354248) for the first three passages. The two PDC lines 997537-175-T-J1-PDC and 415267-285-R-J2-PDC were cultured on uncoated flasks. The 857933-349-R-J2-PDC line was cultured in 6C/Colon 1B media containing advanced DMEM/F-12 (Thermo Fisher Scientific, cat. 12634028), 10 mM HEPES (Thermo Fisher Scientific, cat. 15630080), 1X GlutaMAX supplement (Thermo Fisher Scientific, cat. 35050061), 0.1 mg/mL primocin (InvivoGen, San Diego, CA, cat. ant-pm-2), 10% defined fetal bovine serum, heat inactivated (HyClone Laboratories Inc., Logan, UT, cat. SH30070.03HI), 50% L-WRN conditioned media (ATCC, cat. CRL-3276), 1.25 mM N-Acetyl-L-cysteine (Sigma-Aldrich, cat. A9165), 10 mM nicotinamide (Sigma-Aldrich, cat. N0636), 1X B-27 supplement (Thermo Fisher Scientific, cat. 17504044), 1X N-2 supplement (Thermo Fisher Scientific, cat. […]

[1] = curve of first compound, second compound 0.0316 µM
[2] = curve of first compound, second compound 0.1 µM
[3] = curve of first compound, second compound 0.316 µM
[4] = curve of first compound, second compound 1 µM
[5] = curve of first compound, second compound 3.16 µM
[6] = curve of first compound, second compound 10 µM
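Note: spheroids exposed to compounds for 7 days.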
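Throughout, for viability, T/C: 100% = DMSO vehicle-treated spheroids.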

CC(=O)O[C@H]1C(=O)[C@@]2(C)[C@H]([C@H](OC(=O)c3ccccc3)[C@]3(O)C[C@H](OC(=O)[C@H](O)[C@@H](NC(=O)c4ccccc4)c4ccccc4)C(C)=C1C3(C)C)[C@]1(OC(C)=O)CO[C@@H]1C[C@@H]2O + Nc1ccc(C#CCN(C(=O)Cc2ncc(C(F)(F)F)cc2C(F)(F)F)c2ccc(F)cc2)nn1
IC50 [1]: < 0.00949 µM
IC50 [2]: < 0.00949 µM
IC50 [3]: < 0.00949 µM
IC50 [4]: < 0.00949 µM
IC50 [5]: < 0.00949 µM
IC50 [6]: < 0.00949 µM
viability, T/C (second compound 0.0316 µM, first compound 0.00949 µM): 5.03%
viability, T/C (second compound 0.0316 µM, first compound 0.03 µM): 3.67%
viability, T/C (second compound 0.0316 µM, first compound 0.0949 µM): 3.6%
viability, T/C (second compound 0.0316 µM, first compound 0.3 µM): 4.54%
viability, T/C (second compound 0.0316 µM, first compound 0.949 µM): 3.38%
viability, T/C (second compound 0.0316 µM, first compound 3 µM): 3.49%
viability, T/C (second compound 0.1 µM, first compound 0.00949 µM): 4.54%
viability, T/C (second compound 0.1 µM, first compound 0.03 µM): 3.69%
viability, T/C (second compound 0.1 µM, first compound 0.0949 µM): 3.4%
viability, T/C (second compound 0.1 µM, first compound 0.3 µM): 3.32%
viability, T/C (second compound 0.1 µM, first compound 0.949 µM): 3.65%
viability, T/C (second compound 0.1 µM, first compound 3 µM): 3.64%
viability, T/C (second compound 0.316 µM, first compound 0.00949 µM): 4.71%
viability, T/C (second compound 0.316 µM, first compound 0.03 µM): 3.72%
viability, T/C (second compound 0.316 µM, first compound 0.0949 µM): 3.26%
viability, T/C (second compound 0.316 µM, first compound 0.3 µM): 3.47%
viability, T/C (second compound 0.316 µM, first compound 0.949 µM): 3.51%
viability, T/C (second compound 0.316 µM, first compound 3 µM): 3.52%
viability, T/C (second compound 1 µM, first compound 0.00949 µM): 4.2%
viability, T/C (second compound 1 µM, first compound 0.03 µM): 4.2%
viability, T/C (second compound 1 µM, first compound 0.0949 µM): 3.64%
viability, T/C (second compound 1 µM, first compound 0.3 µM): 3.16%
viability, T/C (second compound 1 µM, first compound 0.949 µM): 3.49%
viability, T/C (second compound 1 µM, first compound 3 µM): 3.91%
viability, T/C (second compound 3.16 µM, first compound 0.00949 µM): 3.91%
viability, T/C (second compound 3.16 µM, first compound 0.03 µM): 3.81%
viability, T/C (second compound 3.16 µM, first compound 0.0949 µM): 3.99%
viability, T/C (second compound 3.16 µM, first compound 0.3 µM): 3.89%
viability, T/C (second compound 3.16 µM, first compound 0.949 µM): 3.75%
viability, T/C (second compound 3.16 µM, first compound 3 µM): 3.61%
viability, T/C (second compound 10 µM, first compound 0.00949 µM): 4.68%
viability, T/C (second compound 10 µM, first compound 0.03 µM): 3.73%
viability, T/C (second compound 10 µM, first compound 0.0949 µM): 3.81%
viability, T/C (second compound 10 µM, first compound 0.3 µM): 3.76%
viability, T/C (second compound 10 µM, first compound 0.949 µM): 3.38%
viability, T/C (second compound 10 µM, first compound 3 µM): 3.83%

Cc1cccc(N(C)C(=O)C2C(O)CCN2c2nc(C)cc(C(F)(F)F)c2C#N)c1 (configuration not stated)
viability, T/C (compound 10 µM): 99.5% [middle of 13 runs]
IC50 (compound alone, run of 11/27/2023): > 10 µM
IC50 (compound alone, run of 12/05/2023): > 10 µM

O=C(c1cc(Cc2n[nH]c(=O)c3ccccc23)ccc1F)N1CCN(C(=O)C2CC2)CC1
viability, T/C (compound 10 µM): 22.3% and 7.71% and 32.7%

COc1cccc2c1C(=O)c1c(O)c3c(c(O)c1C2=O)CC(O)(C(=O)CO)CC3OC1CC(N)C(O)C(C)O1 (configuration not stated)
viability, T/C (compound 0.0316 µM): 16.9% and 19.5% and 19.8%
viability, T/C (compound 0.1 µM): 16.4% and 18.4% and 91.1%
viability, T/C (compound 0.316 µM): 5.17% and 6.51% and 6.09%
viability, T/C (compound 1 µM): 1.01% and 0.37% and 0.7%
viability, T/C (compound 3.16 µM): 0.33% and 0.32% and 0.25%
viability, T/C (compound 10 µM): 0.58% and 0.63% and 0.52%
IC50 (curve of compound): < 0.0316 µM and 0.114 µM

O=C(c1cc(Cc2n[nH]c(=O)c3ccccc23)ccc1F)N1CCN(C(=O)C2CC2)CC1 + Nc1ccc(C#CCN(C(=O)Cc2ncc(C(F)(F)F)cc2C(F)(F)F)c2ccc(F)cc2)nn1
IC50 [1]: 5.08 µM
IC50 [2]: 2.54 µM
IC50 [3]: 4.01 µM
IC50 [4]: 4.53 µM
IC50 [5]: 4.24 µM
IC50 [6]: 4.74 µM
viability, T/C (second compound 0.0316 µM, first compound 0.0316 µM): 118%
viability, T/C (second compound 0.0316 µM, first compound 0.1 µM): 96%
viability, T/C (second compound 0.0316 µM, first compound 0.316 µM): 93.7%
viability, T/C (second compound 0.0316 µM, first compound 1 µM): 91.6%
viability, T/C (second compound 0.0316 µM, first compound 3.16 µM): 58.1%
viability, T/C (second compound 0.0316 µM, first compound 10 µM): 32.9%
viability, T/C (second compound 0.1 µM, first compound 0.0316 µM): 108%
viability, T/C (second compound 0.1 µM, first compound 0.1 µM): 103%
viability, T/C (second compound 0.1 µM, first compound 0.316 µM): 83.2%
viability, T/C (second compound 0.1 µM, first compound 1 µM): 66.8%
viability, T/C (second compound 0.1 µM, first compound 3.16 µM): 47%
viability, T/C (second compound 0.1 µM, first compound 10 µM): 27.4%
viability, T/C (second compound 0.316 µM, first compound 0.0316 µM): 90.3%
viability, T/C (second compound 0.316 µM, first compound 0.1 µM): 94%
viability, T/C (second compound 0.316 µM, first compound 0.316 µM): 98.1%
viability, T/C (second compound 0.316 µM, first compound 1 µM): 93.5%
viability, T/C (second compound 0.316 µM, first compound 3.16 µM): 55%
viability, T/C (second compound 0.316 µM, first compound 10 µM): 30.9%
viability, T/C (second compound 1 µM, first compound 0.0316 µM): 106%
viability, T/C (second compound 1 µM, first compound 0.1 µM): 94.5%
viability, T/C (second compound 1 µM, first compound 0.316 µM): 89.6%
viability, T/C (second compound 1 µM, first compound 1 µM): 85.2%
viability, T/C (second compound 1 µM, first compound 3.16 µM): 58.2%
viability, T/C (second compound 1 µM, first compound 10 µM): 27.8%
viability, T/C (second compound 3.16 µM, first compound 0.0316 µM): 113%
viability, T/C (second compound 3.16 µM, first compound 0.1 µM): 104%
viability, T/C (second compound 3.16 µM, first compound 0.316 µM): 112%
viability, T/C (second compound 3.16 µM, first compound 1 µM): 92.5%
viability, T/C (second compound 3.16 µM, first compound 3.16 µM): 58.6%
viability, T/C (second compound 3.16 µM, first compound 10 µM): 26%
viability, T/C (second compound 10 µM, first compound 0.0316 µM): 104%
viability, T/C (second compound 10 µM, first compound 0.1 µM): 94.8%
viability, T/C (second compound 10 µM, first compound 0.316 µM): 86.7%
viability, T/C (second compound 10 µM, first compound 1 µM): 94.8%
viability, T/C (second compound 10 µM, first compound 3.16 µM): 63.5%
viability, T/C (second compound 10 µM, first compound 10 µM): 25.1%

CC1COCCN1c1cc(C2(O)CC3CCC(C2)O3)c2cnn(-c3ccn[nH]3)c2n1 (configuration not stated)
viability, T/C (compound 0.0316 µM): 25.2% and 23.3% and 30.1%
viability, T/C (compound 0.1 µM): 8.33% and 10.7% and 8.37%
viability, T/C (compound 0.316 µM): 4.72% and 4.82% and 4.13%
viability, T/C (compound 1 µM): 3.5% and 3.16% and 3.44%
viability, T/C (compound 3.16 µM): 3.23% and 3.58% and 4.19%
viability, T/C (compound 10 µM): 2.41% and 1.97% and 3.04%
IC50 (curve of compound): < 0.0316 µM
